Results on one cell line are retold here after the supplement of paper PMC10307832.

What all share (assay): relative viability (nuclei count vs DMSO), 5 days (fraction); higher = more cells survive
Compound in experiment [1]: O=C(c1cc(Cc2n[nH]c(=O)c3ccccc23)ccc1F)N1CCN(C(=O)C2CC2)CC1 [Olaparib] + COc1cc2c(Oc3ccc(NC(=O)C4(C(=O)Nc5ccc(F)cc5)CC4)cc3F)ccnc2cc1OCCCN1CCOCC1 [Foretinib] (partner 0.25 µM)
The method in brief: (§1)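 A single step with final 0.05% Triton X-100, 1% formaldehyde and 1 ug/ml Hoechst fixed the cells and stained nuclei 5 days after treatment. Lung cancer cell lines in 1536-well plates had been treated by pin tool the day after seeding with one drug alone or a fixed anchor-drug dose plus five library-drug doses (not always all listed) in √10 steps, and nuclei were counted on 4× images. Relative viability is the ratio of nuclei in treated wells to nuclei in vehicle wells, taken as the median of duplicate plates.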

Compound in experiment [2]: CC(C)C[C@H](NC(=O)[C@H](CCc1ccccc1)NC(=O)CN1CCOCC1)C(=O)N[C@@H](Cc1ccccc1)C(=O)N[C@@H](CC(C)C)C(=O)[C@@]1(C)CO1 [Carfilzomib] + O=C(c1cc(Cc2n[nH]c(=O)c3ccccc23)ccc1F)N1CCN(C(=O)C2CC2)CC1 [Olaparib] (partner 8 µM)
The method in brief:
as §1

Compound in experiment [3]: O=C(c1cc(Cc2n[nH]c(=O)c3ccccc23)ccc1F)N1CCN(C(=O)C2CC2)CC1 [Olaparib] + COc1cccc2cc(-c3nc([C@H]4CC[C@H](C(=O)O)CC4)n4ncnc(N)c34)[nH]c12 [OSI-027] (partner 0.5 µM)
The method in brief: as §1

Compound in experiment [4]: CC(C)C[C@H](NC(=O)[C@H](CCc1ccccc1)NC(=O)CN1CCOCC1)C(=O)N[C@@H](Cc1ccccc1)C(=O)N[C@@H](CC(C)C)C(=O)[C@@]1(C)CO1 [Carfilzomib]
The method, boiled down: (§2)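 After an overnight hold at 37 °C, lung cancer cell lines in 1536-well plates were pinned with five library-drug doses (not always all listed), each √10 from the next, on vehicle-anchored plates. The cells stayed 5 days without fresh medium, then a one-step fix, permeabilisation and Hoechst stain preceded 4× imaging and MetaXpress nuclear counts. A plate passed only with control CV under 25% and at least one doubling. Viability is the median, over plates, of treated-well nuclei relative to vehicle-well nuclei.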

Compound in experiment [5]: C[C@@H](Oc1cc(-c2cnn(C3CCNCC3)c2)cnc1N)c1c(Cl)ccc(F)c1Cl [Crizotinib]
The method in brief:
as §2

With NCI-H1793, the relative viability is 0.684 in experiment [1] (first compound 0.08 µM); 0.624 in experiment [1] (first compound 0.253 µM); 0.648 in experiment [1] (first compound 2.53 µM); 0.706 in experiment [1] (first compound 8 µM); 0.811 in experiment [2] (first compound 0.001 µM); 1.05 in experiment [2] (first compound 0.003162 µM). For the same cell line, the relative viability in experiment [2] (first compound 0.01 µM) is 0.924; in experiment [2] (first compound 0.03162 µM), 0.732; in experiment [2] (first compound 0.1 µM), 0.223; in experiment [3] (first compound 0.08 µM), 0.279; in experiment [3] (first compound 0.253 µM) it was 0.295; in experiment [3] (first compound 2.53 µM) it was 0.29. For the same cell line, the relative viability came to 0.243 in experiment [3] (first compound 8 µM); 1.03 in experiment [4] (0.003162 µM); 0.827 in experiment [4] (0.01 µM); 0.9 in experiment [4] (0.03162 µM); 0.165 in experiment [4] (0.1 µM); 0.987 in experiment [5] (0.03162 µM). The relative viability in experiment [5] (1 µM) was found to be 1.09.
